The target in assay [1] is T1, recombinant human 17β-HSD1 (Homo sapiens, UniProt P14061).
T1 construct: made in house; host or cells: Sf9 insect cells (baculovirus, Bac to Bac Expression System)
T1 sequence (P14061 1-328): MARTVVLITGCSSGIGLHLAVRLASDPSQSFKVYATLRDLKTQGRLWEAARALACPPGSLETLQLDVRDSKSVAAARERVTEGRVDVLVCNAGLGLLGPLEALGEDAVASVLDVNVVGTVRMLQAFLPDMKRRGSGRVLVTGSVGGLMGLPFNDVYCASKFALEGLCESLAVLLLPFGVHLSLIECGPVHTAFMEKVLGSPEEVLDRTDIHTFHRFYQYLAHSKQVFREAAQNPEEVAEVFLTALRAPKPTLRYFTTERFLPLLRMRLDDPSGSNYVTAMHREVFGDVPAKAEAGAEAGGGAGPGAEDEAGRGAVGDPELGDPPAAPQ
Put plainly: Recombinant 17β-HSD1 assay (HPLC, 3H-estrone conversion). In kind it is biochemical. The settings on record: 30 nM estrone, 1 mM NADPH, 30 min RT, read-out: Inhibition of rec. 17β-HSD1; for inhibition at 0.1 µM: 100 nM compound; for inhibition at 1 µM: 0.5 h, 1 μm compound. The essentials: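 Sf9-expressed human 17β-HSD1 homogenate (0.1 μg/ml) in 20 mM KH2PO4 pH 7.4 with 30 nM estrone plus 3H-estrone tracer and 1 mM NADPH, 30 min at RT, inhibitors at 1 μM or 0.1 μM. Stopped with TCA; estrone and estradiol separated by reverse-phase HPLC with flow scintillation; % inhibition = 100 − % conversion.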

Assay [2] deals with T2, recombinant human 17β-HSD2 (Homo sapiens, UniProt P37059).
T2 construct: made in house; host or cells: Sf9 insect cells (baculovirus, Bac to Bac Expression System)
T2 sequence (P37059 1-387): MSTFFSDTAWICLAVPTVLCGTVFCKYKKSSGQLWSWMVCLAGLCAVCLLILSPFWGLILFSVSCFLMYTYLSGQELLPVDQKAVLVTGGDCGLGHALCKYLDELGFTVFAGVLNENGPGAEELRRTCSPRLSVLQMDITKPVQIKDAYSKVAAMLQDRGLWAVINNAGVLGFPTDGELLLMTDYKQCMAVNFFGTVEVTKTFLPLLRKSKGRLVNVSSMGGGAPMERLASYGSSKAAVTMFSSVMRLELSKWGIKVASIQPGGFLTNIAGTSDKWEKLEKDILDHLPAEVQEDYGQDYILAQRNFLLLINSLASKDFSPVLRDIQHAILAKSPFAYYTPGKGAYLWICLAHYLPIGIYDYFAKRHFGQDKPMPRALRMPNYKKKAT
Briefly: Recombinant 17β-HSD2 assay (HPLC, 3H-estradiol conversion). In kind it is biochemical. Conditions: 50 nM estradiol, 1 mM β-NAD, read-out: Inhibition of rec. 17β-HSD2; for inhibition at 0.1 µM: 100 nM compound; for inhibition at 1 µM: 1 μm compound. Put shortly: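 Homogenate of Sf9 cells expressing recombinant human 17β-HSD2 (6 μg/ml protein) incubated with 50 nM estradiol plus 3H-estradiol tracer and 1 mM β-NAD. Estrone and estradiol radioactivity separated by HPLC; % inhibition = 100 − % conversion to estrone.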

For assay [3], the target named is T3, 17β-HSD3 enzyme (Homo sapiens, UniProt P37058).
T3 construct: expressed in transfected cells; host or cells: MCF-7 cell lines stably expressing 17β-HSD3
T3 sequence (P37058 1-310): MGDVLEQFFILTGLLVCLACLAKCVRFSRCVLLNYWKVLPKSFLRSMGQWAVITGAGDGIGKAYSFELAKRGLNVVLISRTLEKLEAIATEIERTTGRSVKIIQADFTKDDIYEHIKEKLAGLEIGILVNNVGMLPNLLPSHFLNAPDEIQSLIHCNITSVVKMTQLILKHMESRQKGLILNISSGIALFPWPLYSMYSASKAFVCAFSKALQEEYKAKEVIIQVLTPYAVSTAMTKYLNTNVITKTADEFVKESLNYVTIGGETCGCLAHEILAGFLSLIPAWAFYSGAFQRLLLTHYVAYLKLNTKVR
Put plainly: Inhibition of 17β-HSD type 3 enzyme in MCF-7 cells stably expressing 17β-HSD3 (HPLC). The settings on record: MCF7, MCF-7 cells expressing 17β-HSD3, 2 nM androstenedione; for inhibition at 1 µM: 1 μM compound; for inhibition at 10 µM: 10 μM compound. In kind it is cell-based. How it is done:
The compounds were screened in respect of 17β-HSD3 enzyme activity in vitro on established MCF-7 cell lines, each stably expressing the 17β-HSD3 enzyme. The interconversion of substrate by 17β-HSD3 and the 17β-HSD3 inhibiting activity of chemical compounds in these cell lines were detected by HPLC system.
Varying amounts of the test compounds were incubated in the growth medium of the 17β-HSD3 expressing cells together tritium labeled androstenedione (2 nM). The medium samples were removed after exact incubation time and the reaction is stopped by trichloroacetic acid (TCA). The samples were analyzed by HPLC-coupled flow scintillation analysis.
Conversion: The 17β-HSD3 inhibiting activity of an individual test compound was calculated by comparing the conversion of a control sample without any test compound (referred to as “Negative Control”) to the (reduced) conversion of the test sample containing the particular compound to be tested (referred to as “Test Sample”).

On to `C[C@]12CC[C@@H]3c4ccc(B(O)O)cc4CC[C@H]3[C@@H]1[C@H](CCC(=O)NCc1ccccc1)CC2(F)F` [Compound 63, [15beta-[3-(benzylamino)-3-oxopropyl]-17,17-difluoroestra-1(10),2,4-trien-3-yl]boronic acid], for which the inhibition at 0.1 µM came to 51% in assay [1] and 12.8% in assay [2]. Besides, the figures for the inhibition at 1 µM in assay [1], in assay [2] and in assay [3] were 66%, 16.9% and 41%, respectively. For the same compound, the inhibition at 10 µM in assay [3] was found to be 88%.

For the compound `Cc1cccc2c(CCNC(=O)CC[C@@H]3CC(F)(F)[C@@]4(C)CC[C@@H]5c6ccc(B(O)O)cc6CC[C@H]5[C@H]34)c[nH]c12` [Compound 67, [17,17-difluoro-15beta-(3-{[2-(7-methyl-1H-indol-3-yl)ethyl]amino}-3-oxopropyl)estra-1(10),2,4-trien-3-yl]boronic acid], in assay [1], the inhibition at 0.1 µM turned out to be 47% and the inhibition at 1 µM was 66%. In addition, in assay [2], the inhibition at 0.1 µM was 10% and the inhibition at 1 µM worked out at 15.8%. Besides, in assay [3], the inhibition at 1 µM worked out at 40% and the inhibition at 10 µM is 84%.

As to `CCN(CC)C(=O)CC[C@@H]1CC(F)(F)[C@@]2(C)CC[C@@H]3c4ccc(B(O)O)cc4CC[C@H]3[C@H]12` [Compound 71, [15beta-[3-(diethylamino)-3-oxopropyl]-17,17-difluoroestra-1(10),2,4-trien-3-yl]boronic acid], the inhibition at 0.1 µM was 78% in assay [1] and 7.9% in assay [2]. The inhibition at 1 µM in assay [1] was 85%; in assay [2], 16.3%; in assay [3] it was 31%. Besides, the inhibition at 10 µM in assay [3] worked out at 60%.

As to `COc1ccc(CCN(C)C(=O)CC[C@@H]2CC(F)(F)[C@@]3(C)CC[C@@H]4c5ccc(B(O)O)cc5CC[C@H]4[C@H]23)cc1OC` [Compound 72, [15beta-(3-{[2-(3,4-dimethoxyphenyl)ethyl](methyl)amino}-3-oxopropyl)-17,17-difluoroestra-1(10),2,4-trien-3-yl]boronic acid], the inhibition at 0.1 µM in assay [1] is 39%; in assay [2], -2.4%. Besides, the results for the inhibition at 1 µM in assay [1], in assay [2] and in assay [3] were 77%, 5.3% and 45%, respectively. Moreover, the inhibition at 10 µM in assay [3] was 71%.

In the case of `C[C@]12CC[C@@H]3c4ccc(Nc5ccc6c(c5)S(=O)(=O)C=C6)cc4CC[C@H]3[C@@H]1[C@@H](CCCC(=O)N1CCOCC1)CC2=O` [Compound 91, 3-[(1,1-dioxido-1-benzothien-6-yl)amino]-15alpha-(4-morpholin-4-yl-4-oxobutyl)estra-1(10),2,4-trien-17-one], in assay [1], the inhibition at 0.1 µM amounted to 36% and the inhibition at 1 µM turned out to be 69%. In assay [2], the inhibition at 0.1 µM was determined as 0.7% and the inhibition at 1 µM was 5.7%. In addition, in assay [3], the inhibition at 1 µM stood at 7% and the inhibition at 10 µM was determined as 52%.

The inhibition is the drop in the measured response relative to a control, in per cent.

These data come from patent US8288367B2, “Substituted estratriene derivatives as 17BETA HSD inhibitors” (Solvay Pharmaceuticals GmBH, priority 2006, dated 2012).
